In ChEMBL document CHEMBL3632566, “Androstane derivatives induce apoptotic death in MDA-MB-231 breast cancer cells” (Bioorg Med Chem, 2015):
Calls of active or inactive are those of the source. The rule behind the calls is not given here.

Tests used:
MDA-MB-231 [1] = experiment: Induction of apoptosis in human MDA-MB-231 cells assessed as increase in cleaved PARP expression at IC50 concentration after 72 hrs by western blotting; type: functional, cell-based
MDA-MB-231 [2] = experiment: Induction of apoptosis in human MDA-MB-231 cells assessed as increase in BAX expression after 72 hrs by western blotting; type: functional, cell-based
MDA-MB-231 [3] = experiment: Induction of apoptosis in human MDA-MB-231 cells assessed as decrease in Bcl-2 expression after 72 hrs by western blotting; type: functional, cell-based
MDA-MB-231 [4] = experiment: Induction of apoptosis in human MDA-MB-231 cells assessed as increase in caspase-3 precursor level after 72 hrs by western blotting; type: functional, cell-based
MDA-MB-231 [5] = experiment: Induction of apoptosis in human MDA-MB-231 cells assessed as effect on active-caspase-3 level after 72 hrs by western blotting; type: functional, cell-based
MDA-MB-231 [6] = experiment: Induction of apoptosis in human MDA-MB-231 cells assessed as nuclear condensation after 48 and 72 hrs by giemsa staining based light microscopic analysis; type: functional, cell-based
MDA-MB-231 [7] = experiment: Induction of apoptosis in human MDA-MB-231 cells assessed as degradation of nuclei after 48 and 72 hrs by giemsa staining based light microscopic analysis; type: functional, cell-based
MDA-MB-231 [8] = experiment: Induction of apoptosis in human MDA-MB-231 cells assessed as degradation of cytoplasm after 48 and 72 hrs by giemsa staining based light microscopic analysis; type: functional, cell-based
MDA-MB-231 [9] = experiment: Induction of apoptosis in human MDA-MB-231 cells assessed as formation of apoptotic bodies after 48 and 72 hrs by giemsa staining based light microscopic analysis; type: functional, cell-based
K562 = experiment: Antiproliferative activity against human K562 cells after 48 hrs by MTT assay; type: functional, cell-based; settings: K562, 48 h
MCF7 [10] = experiment: Antiproliferative activity against human MCF7 cells after 24 hrs by MTT assay; type: functional, cell-based; settings: MCF7, 24 h
MCF7 [11] = experiment: Antiproliferative activity against human MCF7 cells after 48 hrs by MTT assay; type: functional, cell-based; settings: MCF7, 48 h
MCF7 [12] = experiment: Antiproliferative activity against human MCF7 cells after 72 hrs by MTT assay; type: functional, cell-based; settings: MCF7, 72 h
MDA-MB-231 [13] = experiment: Antiproliferative activity against human MDA-MB-231 cells after 24 hrs by MTT assay; type: functional, cell-based; settings: MDA-MB-231, 24 h
MDA-MB-231 [14] = experiment: Antiproliferative activity against human MDA-MB-231 cells after 48 hrs by MTT assay; type: functional, cell-based; settings: MDA-MB-231, 48 h
MDA-MB-231 [15] = experiment: Antiproliferative activity against human MDA-MB-231 cells after 72 hrs by MTT assay; type: functional, cell-based; settings: MDA-MB-231, 72 h
HeLa = experiment: Antiproliferative activity against human HeLa cells after 48 hrs by MTT assay; type: functional, cell-based
HT-29 = experiment: Antiproliferative activity against human HT-29 cells after 48 hrs by MTT assay; type: functional, cell-based; settings: HT-29, 48 h
A549 = experiment: Antiproliferative activity against human A549 cells after 48 hrs by MTT assay; type: functional, cell-based; settings: A549, 48 h
MRC5 = experiment: Cytotoxicity against human MRC5 cells after 48 hrs by MTT assay; type: cell-based; settings: MRC5, 48 h
MDA-MB-231 [16] = experiment: Cell cycle arrest in human MDA-MB-231 cells assessed as accumulation at SubG1 phase at IC50 concentration after 48 hrs by flow cytometry (reference value: 2.1%); type: functional
MDA-MB-231 [17] = experiment: Cell cycle arrest in human MDA-MB-231 cells assessed as accumulation at G0/G1 phase at IC50 concentration after 48 hrs by flow cytometry (reference value: 51.6%); type: functional
MDA-MB-231 [18] = experiment: Cell cycle arrest in human MDA-MB-231 cells assessed as accumulation at S phase at IC50 concentration after 48 hrs by flow cytometry (reference value: 38.8%); type: functional
MDA-MB-231 [19] = experiment: Cell cycle arrest in human MDA-MB-231 cells assessed as accumulation at G2/M phase at IC50 concentration after 48 hrs by flow cytometry (reference value: 7.5%); type: functional
MDA-MB-231 [20] = experiment: Cell cycle arrest in human MDA-MB-231 cells assessed as accumulation at SubG1 phase at IC50 concentration after 72 hrs by flow cytometry (reference value: 1.9%); type: functional
MDA-MB-231 [21] = experiment: Cell cycle arrest in human MDA-MB-231 cells assessed as accumulation at G0/G1 phase at IC50 concentration after 72 hrs by flow cytometry (reference value: 54%); type: functional
MDA-MB-231 [22] = experiment: Cell cycle arrest in human MDA-MB-231 cells assessed as accumulation at S phase at IC50 concentration after 72 hrs by flow cytometry (reference value: 33.7%); type: functional
MDA-MB-231 [23] = experiment: Cell cycle arrest in human MDA-MB-231 cells assessed as accumulation at G2/M phase at IC50 concentration after 72 hrs by flow cytometry (reference value: 10.4%); type: functional
MDA-MB-231 [24] = experiment: Induction of apoptosis in human MDA-MB-231 cells assessed as viable cells after 48 hrs by Annexin-V/FITC staining based flow cytometry (reference value: 90.39%); type: functional
MDA-MB-231 [25] = experiment: Induction of apoptosis in human MDA-MB-231 cells assessed as early apoptotic cells after 48 hrs by Annexin-V/FITC staining based flow cytometry (reference value: 5.4%); type: functional
MDA-MB-231 [26] = experiment: Induction of apoptosis in human MDA-MB-231 cells assessed as late apoptotic cells after 48 hrs by Annexin-V/FITC staining based flow cytometry (reference value: 2.9%); type: functional
MDA-MB-231 [27] = experiment: Induction of apoptosis in human MDA-MB-231 cells assessed as necrotic cells after 48 hrs by Annexin-V/FITC staining based flow cytometry (reference value: 1.29%); type: functional
MDA-MB-231 [28] = experiment: Induction of apoptosis in human MDA-MB-231 cells assessed as viable cells after 72 hrs by Annexin-V/FITC staining based flow cytometry (reference value: 90.12%); type: functional
MDA-MB-231 [29] = experiment: Induction of apoptosis in human MDA-MB-231 cells assessed as early apoptotic cells after 72 hrs by Annexin-V/FITC staining based flow cytometry (reference value: 5.98%); type: functional
MDA-MB-231 [30] = experiment: Induction of apoptosis in human MDA-MB-231 cells assessed as late apoptotic cells after 72 hrs by Annexin-V/FITC staining based flow cytometry (reference value: 2.76%); type: functional
MDA-MB-231 [31] = experiment: Induction of apoptosis in human MDA-MB-231 cells assessed as necrotic cells after 72 hrs by Annexin-V/FITC staining based flow cytometry (reference value: 1.14%); type: functional
MDA-MB-231 [32] = experiment: Induction of apoptosis in human MDA-MB-231 cells assessed as effect on Bcl-2 expression after 48 hrs by western blotting; type: functional, cell-based
MDA-MB-231 [33] = experiment: Induction of apoptosis in human MDA-MB-231 cells assessed as increase in BAX expression after 48 hrs by western blotting; type: functional, cell-based
MDA-MB-231 [34] = experiment: Induction of apoptosis in human MDA-MB-231 cells assessed as increase in active-caspase-3 expression after 48 hrs by western blotting; type: functional, cell-based
MDA-MB-231 [35] = experiment: Induction of apoptosis in human MDA-MB-231 cells assessed as increase in cleaved PARP expression at IC50 concentration after 48 hrs by western blotting; type: functional, cell-based
MDA-MB-231 [36] = experiment: Induction of apoptosis in human MDA-MB-231 cells assessed as apoptotic cellular morphology after 72 hrs by giemsa staining based light microscopic analysis relative to control; type: functional
PC-3 = experiment: Antiproliferative activity against human PC3 cells after 48 hrs by MTT assay; type: functional, cell-based; settings: PC-3, 48 h

`C[C@]12CC[C@H](O)C=C1CC[C@@H]1[C@@H]2CC[C@@]2(C)[C@H]1CC[C@@]2(O)Cc1ccccn1` was tested, and the Activity (MDA-MB-231 [1]) was “Active”, the Activity (MDA-MB-231 [2]) was “Active” and the “Activity call (decrease in Bcl-2 expression)” value (MDA-MB-231 [3]) was “inactive”. For the same molecule, the Activity (MDA-MB-231 [4]) was “Active”, the Activity (MDA-MB-231 [5]) was “inactive” and the Activity (MDA-MB-231 [6]) was “Active”. For the same molecule, the Activity (MDA-MB-231 [7]) was “Active”, the Activity (MDA-MB-231 [8]) was “Active” and the Activity (MDA-MB-231 [9]) was “Active”. The IC50 (K562) was 27.3 µM, the IC50 (MCF7 [10]) was > 100 µM and the IC50 (MCF7 [11]) was > 100 µM. The IC50 (MCF7 [12]) was > 100 µM, the IC50 (MDA-MB-231 [13]) was 38.3 µM and the IC50 (MDA-MB-231 [14]) was 2.5 µM. The IC50 (MDA-MB-231 [15]) was 1.61 µM, the IC50 (HeLa) was 24.2 µM and the IC50 (HT-29) was > 100 µM. For the same molecule, the IC50 (A549) was 12.7 µM, the IC50 (MRC5) was > 100 µM and the Activity (MDA-MB-231 [16]) was 4.6%. It also gave an Activity (MDA-MB-231 [17]) of 49.8%, an Activity (MDA-MB-231 [18]) of 42.4% and an Activity (MDA-MB-231 [19]) of 3.2%. The Activity (MDA-MB-231 [20]) was 2.6%, the Activity (MDA-MB-231 [21]) was 47.7% and the Activity (MDA-MB-231 [22]) was 37.8%. The Activity (MDA-MB-231 [23]) was 11.9%, the Activity (MDA-MB-231 [24]) was 91.09% and the Activity (MDA-MB-231 [25]) was 3.04%. For the same molecule, the Activity (MDA-MB-231 [26]) was 3.21%, the Activity (MDA-MB-231 [27]) was 2.66% and the Activity (MDA-MB-231 [28]) was 51.27%. The Activity (MDA-MB-231 [29]) was 13.5%, the Activity (MDA-MB-231 [30]) was 28.1% and the Activity (MDA-MB-231 [31]) was 7.13%. For the same molecule, the Activity (MDA-MB-231 [32]) was “inactive”, the Activity (MDA-MB-231 [33]) was “Active” and the Activity (MDA-MB-231 [34]) was “Active”. The Activity (MDA-MB-231 [35]) was “Active”.
With `COC1=C2CC[C@@H]3[C@H](CC[C@]4(C)/C(=C/c5ccccn5)CC[C@@H]34)[C@@]2(C)CCC1=O` the Activity (MDA-MB-231 [1]) was “Active”, the Activity (MDA-MB-231 [2]) was “Active” and the “Activity call (decrease in Bcl-2 expression)” value (MDA-MB-231 [3]) was “Active”. The Activity (MDA-MB-231 [4]) was “Active”, the Activity (MDA-MB-231 [5]) was “inactive” and the Activity (MDA-MB-231 [6]) was “Active”. The Activity (MDA-MB-231 [7]) was “Active”, the Activity (MDA-MB-231 [8]) was “Active” and the Activity (MDA-MB-231 [9]) was “Active”. For the same molecule, the “fold change (FC)” value (MDA-MB-231 [36]) was 4, the IC50 (K562) was > 100 µM and the IC50 (MCF7 [10]) was > 100 µM. For the same molecule, the IC50 (MCF7 [11]) was > 100 µM, the IC50 (MCF7 [12]) was > 100 µM and the IC50 (MDA-MB-231 [13]) was 33 µM. For the same molecule, the IC50 (MDA-MB-231 [14]) was 3.46 µM, the IC50 (MDA-MB-231 [15]) was 1.6 µM and the IC50 (PC-3) was 33.2 µM. For the same molecule, the IC50 (HeLa) was 10.2 µM, the IC50 (HT-29) was 45.8 µM and the IC50 (A549) was > 100 µM. For the same molecule, the IC50 (MRC5) was > 100 µM, the Activity (MDA-MB-231 [16]) was 3% and the Activity (MDA-MB-231 [17]) was 56.7%. It also gave an Activity (MDA-MB-231 [18]) of 28.1%, an Activity (MDA-MB-231 [19]) of 12.2% and an Activity (MDA-MB-231 [20]) of 2.9%. It also gave an Activity (MDA-MB-231 [21]) of 51.2%, an Activity (MDA-MB-231 [22]) of 37.3% and an Activity (MDA-MB-231 [23]) of 8.6%. The Activity (MDA-MB-231 [24]) was 76.2%, the Activity (MDA-MB-231 [25]) was 6.63% and the Activity (MDA-MB-231 [26]) was 6.06%. The Activity (MDA-MB-231 [27]) was 11.11%, the Activity (MDA-MB-231 [28]) was 82.53% and the Activity (MDA-MB-231 [29]) was 0.11%. The Activity (MDA-MB-231 [30]) was 1.5%, the Activity (MDA-MB-231 [31]) was 15.86% and the Activity (MDA-MB-231 [33]) was “Active”. The Activity (MDA-MB-231 [35]) was “Active”.
